Experiment [1] concerns K562. Nature of the experiment: Antiproliferative activity against human K562 cells. It counts as functional, cell-based.
For experiment [2], the system named is COLO 205. Description: Antiproliferative activity against human COLO205 cells. It counts as functional, cell-based.
Experiment [3] deals with T47D. Nature of the experiment: Antiproliferative activity against human T47D cells. It counts as functional, cell-based.
Experiment [4] deals with CCD-18Co. Nature of the experiment: Cytotoxicity against human CCD-18Co cells. It counts as cell-based.
Experiment [5] can be described thus: Selectivity index, ratio of IC50 for human CCD-18Co cells to IC50 for human COLO 205 cells.
Experiment [6] is described as follows: Selectivity index, ratio of IC50 for human CCD-18Co cells to IC50 for human K562 cells.
A short description of experiment [7]: Selectivity index, ratio of IC50 for human CCD-18Co cells to IC50 for human T47D cells.

The source of these data is ChEMBL document CHEMBL4673292, “Design, synthesis and anticancer activity of 2-amidomethoxy-1,4-naphthoquinones and its conjugates with Biotin/polyamine” (Bioorg Med Chem Lett, 2021).

Some results are limits rather than exact numbers.

Regarding `CC(=O)NCCCCCCNC(=O)COC1=CC(=O)c2c(O)cccc2C1=O`, the IC50 (usually the concentration at which inhibition is half-maximal) is 2300 nM in experiment [1], 2400 nM in experiment [2] and 1200 nM in experiment [3].
For `NCCNC(=O)COC1=CC(=O)c2c(O)cccc2C1=O`, the IC50 turned out to be 4100 nM in experiment [1], 4700 nM in experiment [2] and 2800 nM in experiment [3].
Consider `O=C(CCCCC1SCC2NC(=O)NC21)NCCCCCCNC(=O)COC1=CC(=O)c2c(O)cccc2C1=O` (centres undefined), for which the 50% inhibitory concentration (IC50) in experiment [4] came to 9.2 µM; in experiment [1] it was 1100 nM; in experiment [2], 1400 nM; in experiment [3], 500 nM. Moreover, the “Ratio IC50” value in experiment [5], in experiment [6] and in experiment [7] was more than 10 in each case.
In the case of `NCCCCC(CN)CNC(=O)COC1=CC(=O)c2c(O)cccc2C1=O` (centres undefined), the IC50 in experiment [1] was more than 10000 nM; in experiment [2] it was 7300 nM; in experiment [3], 9600 nM.
On the same counts, the results for `NCCCCCCNC(=O)COC1=CC(=O)c2ccccc2C1=O` are more than 10000 nM, more than 10000 nM and 6500 nM.
Regarding `COC(=O)CCCCCNC(=O)COC1=CC(=O)c2c(O)cccc2C1=O`, the concentration for half-maximal inhibition (IC50) in experiment [1] stood at 4900 nM; in experiment [2] it was 4400 nM; in experiment [3] it was 3600 nM.
On the same counts, the results for `O=C1NC2CSC(CCCCC(=O)N3CCN(C(=O)COC4=CC(=O)c5ccccc5C4=O)CC3)C2N1` (centres undefined) are 1500 nM, 2300 nM and 1200 nM.
Regarding `CC(C)(C)OC(=O)NCCCCCCNC(=O)COC1=CC(=O)c2c(O)cccc2C1=O`, the IC50 was 7.3 µM in experiment [4], 1000 nM in experiment [1], 1300 nM in experiment [2] and 300 nM in experiment [3]. Further, the “Ratio IC50” value in experiment [5], in experiment [6] and in experiment [7] was more than 10 in each case.
Regarding `NCCCC(=O)NCCCCNC(=O)COC1=CC(=O)c2c(O)cccc2C1=O.O=C(O)C(F)(F)F.O=C(O)C(F)(F)F`, the IC50 in experiment [4] came to 8.3 µM; in experiment [1] it was 1700 nM; in experiment [2], 1200 nM; in experiment [3] it was 1700 nM. The “Ratio IC50” value in experiment [5], in experiment [6] and in experiment [7] was more than 10 each time.
As to `O=C(O)C(F)(F)F.O=C1C(OCC(=O)N2CCNCC2)=CC(=O)c2c(O)cccc21`, the IC50 in experiment [4] turned out to be 8.9 µM; in experiment [1], 500 nM; in experiment [2] it was 800 nM; in experiment [3], 600 nM. Also, the “Ratio IC50” value in experiment [5], in experiment [6] and in experiment [7] was more than 10 throughout.
Consider `NCC(CN)CCCCNC(=O)COC1=CC(=O)c2c(O)cccc2C1=O`, for which the IC50 in experiment [1] was 5100 nM; in experiment [2], 5300 nM; in experiment [3], 6100 nM.
In the case of `CC(C)(C)OC(=O)NCCCCCCNC(=O)COC1=CC(=O)c2ccccc2C1=O`, the IC50 in experiment [1] was 6700 nM; in experiment [2], more than 10000 nM; in experiment [3], more than 10000 nM.
Consider `CC(C)(C)OC(=O)N1CCN(C(=O)COC2=CC(=O)c3c(O)cccc3C2=O)CC1`, for which the IC50 in experiment [1] is 1200 nM; in experiment [2] it was 2300 nM; in experiment [3] it was 800 nM.
Take `CC(C)(C)OC(=O)NCCNC(=O)COC1=CC(=O)c2c(O)cccc2C1=O`: the results for the IC50 in experiment [1], in experiment [2] and in experiment [3] were 1100 nM, 1400 nM and 100 nM, respectively.
Taken in the same sequence, the figures for `O=C(CCCCC1SCC2NC(=O)NC21)NCCCCCCNC(=O)COC1=CC(=O)c2ccccc2C1=O` (centres undefined) were more than 10000 nM, more than 10000 nM and 1800 nM.
Regarding `CC(C)(C)OC(=O)NCC(CCCCNC(=O)COC1=CC(=O)c2c(O)cccc2C1=O)NC(=O)OC(C)(C)C` (centres undefined), the IC50 in experiment [1] was 1100 nM; in experiment [2], 1600 nM; in experiment [3], 1100 nM.
On to `CC(C)(C)OC(=O)NCCCCC(CNC(=O)COC1=CC(=O)c2c(O)cccc2C1=O)NC(=O)OC(C)(C)C` (centres undefined), for which the IC50 was 1300 nM in experiment [1], 3100 nM in experiment [2] and 1400 nM in experiment [3].
With `NCCCCCCNC(=O)COC1=CC(=O)c2c(O)cccc2C1=O.O=C(O)C(F)(F)F`, the IC50 in experiment [4] is 8.6 µM; in experiment [1], 800 nM; in experiment [2], 800 nM; in experiment [3] it was 600 nM. In addition, the “Ratio IC50” value in experiment [5], in experiment [6] and in experiment [7] was more than 10 each time.
Turning to `O=C(CCCCC1SCC2NC(=O)NC21)NCCNC(=O)COC1=CC(=O)c2c(O)cccc2C1=O` (centres undefined), the IC50 in experiment [2] and in experiment [3] was more than 10000 nM in each case.
As for `CCCCCCCNC(=O)COC1=CC(=O)c2c(O)cccc2C1=O`, the IC50 was 5700 nM in experiment [1], more than 10000 nM in experiment [2] and 4600 nM in experiment [3].
For the compound `O=C(COC1=CC(=O)c2c(O)cccc2C1=O)NCCCCCCO`, the figures for the IC50 in experiment [1], in experiment [2] and in experiment [3] were 3300 nM, 2800 nM and 3300 nM, respectively.
As to `CC(C)(C)OC(=O)NCC(CCCCNC(=O)COC1=CC(=O)c2c(O)cccc2C1=O)CNC(=O)CCCCC1SCC2NC(=O)NC21` (racemic), the IC50 in experiment [1] was more than 10000 nM; in experiment [3], 7900 nM.
